Counter-ions that a name gives are not always drawn. A value given as a limit tells only on which side of the number the result lay.

Sequence of human recombinant FKBP-12 (P62942 whole entry): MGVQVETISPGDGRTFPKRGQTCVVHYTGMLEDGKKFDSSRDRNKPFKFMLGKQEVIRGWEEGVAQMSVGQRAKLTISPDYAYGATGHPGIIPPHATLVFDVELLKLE

The first test addresses human recombinant FKBP-12 (Homo sapiens, UniProt P62942). The test is described as follows: coupled colorimetric PPIase (rotamase) assay, FKBP-12. Particulars: succinyl-AFPF-pNA substrate, chymotrypsin-coupled, 10° C., pH 8.0; read-out: IC50 for inhibition of the FKBP-12 enzyme. It counts as biochemical. The source says: The affinity of the compounds of the formula (I) for FKBP-12 can be determined in vitro in a coupled calorimetric PPlase assay using similar procedures to published methods (e.g. see Kofron, J. L., et al., Biochemistry, 1991,30, 6127-6134, Zarnt, T., et al., Biochem. J. 1995, 305, 159-164, Holt, D. A., et al., J. Am. Chem. Soc., 1993, 115, 9925-9938). In these methods, the cis-trans isomerisation of a hydrophobic amino acid-proline bond in a tetrapeptide substrate (e.g. the phenylalanine-proline bond in N-succinyl-ala-phe-pro-phe-p-nitroanilide [succinyl-AFPF-pNA]) can be determined by monitoring cleavage of pNA from the transPro-containing peptide by an excess of chymotrypsin.
The IC50 (the concentration of the compound of the formula (I) producing 50% inhibition) values were determined using the following assay methodology. Assay buffer (2.175 ml) (50 mM 4-(2-hydroxyethyl)-1-piperazineethanesulphonic acid (HEPES), 100 mM NaCl, 1 mM dithiothreitol (DTT), pH 8.0) is equilibrated to 10° C. in a cuvette. 12.5 μl of a solution of the present compound in DMSO, 250 μl of a 60 mg/ml solution of α-chymotrypsin in 1 mM aqueous hydrochloric acid and then 50 μl of a solution of human recombinant FKBP-12 (4.5 μM) in assay buffer are added and mixed. The reaction is initiated by addition of 12.5 μl of a solution of 20 mM succinyl-AFPF-pNA in DMSO. The absorbance at 390 nm is monitored for one minute collecting data every 0.25 second. Data are fitted with a first order rate equation with offset and the rate constant obtained corrected for the rate of uncatalysed isomerisation of the substrate. The rate constant determined at different inhibitor concentrations (10 nM to 100 μM) is expressed as % inhibition of the control rate constant. The IC50 is estimated using a non-linear least squares curve fitting routine of the sigmoidal dose response data.
For `O=C(N[C@H]1CCN(Cc2ccccc2)C1)[C@@H]1CCCCN1c1nc2ccccc2o1` [Example 2, (2S)-1-(1,3-Benzoxazol-2-yl)-N^2-[(3S)-1-benzylpyrrolidin-3-yl]-2-piperidinecarboxamide], the half-inhibitory concentration (IC50) (in general, the concentration at which inhibition is half-maximal) is < 1200 nM.

Take `O=C(N[C@H]1CCN(Cc2ccccn2)C1)[C@@H]1CCCCN1c1nc2ccccc2o1` [Example 6, (2S)-1-(1,3-Benzoxazol-2-yl)-N^2-[(3S)-1-(2-pyridinylmethyl)pyrrolidin-3-yl]-2-piperidinecarboxamide]: the IC50 was < 1200 nM.

As to `O=C(N[C@H]1CCN(Cc2cccnc2)C1)[C@@H]1CCCCN1c1nc2ccccc2o1` [Example 7, (2S)-1-(1,3-Benzoxazol-2-yl)-N^2-[(3S)-1-(3-pyridinylmethyl)pyrrolidin-3-yl]-2-piperidinecarboxamide], the 50% inhibitory concentration (IC50) is < 1200 nM.

For the compound `O=C(N[C@H]1CCN(Cc2ccncc2)C1)[C@@H]1CCCCN1c1nc2ccccc2o1` [Example 8, (2S)-1-(1,3-Benzoxazol-2-yl)-N^2-[(3S)-1-(4-pyridinylmethyl)pyrrolidin-3-yl]-2-piperidinecarboxamide], the IC50 was < 1200 nM.

`NC(=O)c1cccc(CN2CC[C@H](NC(=O)[C@@H]3CCCCN3c3nc4ccccc4o3)C2)c1` [Example 13a, (2S)-N^2-1-{(3S)-1-[3-(Aminocarbonyl)phenylmethyl]pyrrolidin-3-yl}-1-(1,3-benzoxazol-2-yl)-2-piperidinecarboxamide]: the IC50 is < 1200 nM.

`O=C(N[C@H]1CCN(Cc2ccccc2)C1)[C@@H]1CCCCN1c1nc2ccc(Br)cc2o1` [Example 15, (2S)-N^2-[(3S)-1-Benzylpyrrolidin-3-yl]-1-(6-bromo-1,3-benzoxazol-2-yl)-2-piperidinecarboxamide]: the IC50 was < 1200 nM.

On to `O=C(N[C@H]1CCN(Cc2cc3ccccc3nc2Cl)C1)[C@@H]1CCCCN1c1nc2ccccc2o1` [Example 16], for which the IC50 was < 1200 nM.

As for `O=C(N[C@H]1CCN(Cc2ccnc3ccccc23)C1)[C@@H]1CCCCN1c1nc2ccccc2o1` [Example 17], the half-maximal inhibitory concentration (IC50) is < 1200 nM.

In the case of `O=C(N[C@H]1CCN(Cc2ccc3ccccc3n2)C1)[C@@H]1CCCCN1c1nc2ccccc2o1` [Example 18], the 50% inhibitory concentration (IC50) is < 1200 nM.

Consider `O=C(N[C@H]1CCN(Cc2cnc3ccccc3c2)C1)[C@@H]1CCCCN1c1nc2ccccc2o1` [Example 19], for which the concentration for half-maximal inhibition (IC50) is < 1200 nM.

With `CC(c1ccnc2ccccc12)N1CC[C@H](NC(=O)[C@@H]2CCCCN2c2nc3ccccc3o2)C1` (stereo partly shown) [Example 20], the IC50 was < 1200 nM.

Turning to `O=C(N[C@H]1CCN(C(=O)c2ccc3ccccc3n2)C1)[C@@H]1CCCCN1c1nc2ccccc2o1` [Example 21, (2S)-N^2-{(3S)-1-[Quinolin-2-ylcarbonyl]pyrrolidin-3-yl}-1-(1,3-benzoxazol-2-yl)-2-piperidinecarboxamide], the concentration for half-maximal inhibition (IC50) was < 1200 nM.

Take `O=C(N[C@H]1CCN(C(=O)c2cc(-c3ccccc3)nc3ccccc23)C1)[C@@H]1CCCCN1c1nc2ccccc2o1` [Example 22, (2S)-N^2-{(3S)-1-[2-Phenylquinolin-4-ylcarbonyl]pyrrolidin-3-yl}-1-(1,3-benzoxazol-2-yl)-2-piperidinecarboxamide]: the IC50 is < 1200 nM.

On to `COc1cc(C(=O)N2CC[C@H](NC(=O)[C@@H]3CCCCN3c3nc4ccccc4o3)C2)nc2ccccc12` [Example 23, (2S)-N^2-{(3S)-1-[4-Methoxyquinolin-2-ylcarbonyl]pyrrolidin-3-yl}-1-(1,3-benzoxazol-2-yl)-2-piperidinecarboxamide], for which the IC50 was < 1200 nM.

For `COc1ccc2nc(-c3ccccc3)cc(C(=O)N3CC[C@H](NC(=O)[C@@H]4CCCCN4c4nc5ccccc5o4)C3)c2c1` [Example 24, (2S)-N^2-{(3S)-1-[6-Methoxy-2-phenylquinolin-4-ylcarbonyl]pyrrolidin-3-yl}-1-(1,3-benzoxazol-2-yl)-2-piperidinecarboxamide], the IC50 is < 1200 nM.

For `O=C(N[C@H]1CCN(C(=O)c2cc(N3CCCCC3)nc3ccccc23)C1)[C@@H]1CCCCN1c1nc2ccccc2o1` [Example 25, (2S)-N^2-{(3S)-1-[2-Piperidinoquinolin-4-ylcarbonyl]pyrrolidin-3-yl}-1-(1,3-benzoxazol-2-yl)-2-piperidinecarboxamide], the concentration for half-maximal inhibition (IC50) was < 1200 nM.

`O=C(N[C@H]1CCN(C(=O)c2cc(Cl)nc3ccccc23)C1)[C@@H]1CCCCN1c1nc2ccccc2o1` [Example 26, (2S)-N^2-{(3S)-1-[2-Chloroquinolin-4-ylcarbonyl]pyrrolidin-3-yl}-1-(1,3-benzoxazol-2-yl)-2-piperidinecarboxamide]: the IC50 is < 1200 nM.

As for `O=C(N[C@H]1CCN(C(=O)c2ccc3cn[nH]c3c2)C1)[C@@H]1CCCCN1c1nc2ccccc2o1` [Example 27, (2S)-N^2-{(3S)-1-[1H-benzpyrazol-6-ylcarbonyl]pyrrolidin-3-yl}-1-(1,3-benzoxazol-2-yl)-2-piperidinecarboxamide], the half-inhibitory concentration (IC50) was < 1200 nM.

In the case of `O=C(NC1CCCN(Cc2ccccc2)C1)[C@@H]1CCCCN1c1nc2ccccc2o1` (stereo partly drawn) [Example 30, (2S)-1-(1,3-Benzoxazol-2-yl)-N^2-(1-benzyl-3-piperidinyl)-2-piperidinecarboxamide], the IC50 was < 1200 nM.

In the case of `O=C(N[C@H]1CN[C@H](COCc2ccccc2)C1)[C@@H]1CCCCN1c1nc2ccccc2o1` [Example 35, (2S)-1-(1,3-Benzoxazol-2-yl)-N^2-(3R,5S)-5-[(benzyloxy)methyl]pyrrolidin-3-yl-2-piperidinecarboxamide hydrochloride], the half-inhibitory concentration (IC50) was < 1200 nM.

For `O=C(N[C@H]1CCN(Cc2ccccc2)C1)C1CCCCN1c1nc2ccccc2[nH]1` (stereo partly shown) [Example 41], the half-inhibitory concentration (IC50) was < 1200 nM.

In the next test the target is T1, human recombinant FKBP52 (Homo sapiens, UniProt Q02790).
T1 sequence (Q02790 1-459): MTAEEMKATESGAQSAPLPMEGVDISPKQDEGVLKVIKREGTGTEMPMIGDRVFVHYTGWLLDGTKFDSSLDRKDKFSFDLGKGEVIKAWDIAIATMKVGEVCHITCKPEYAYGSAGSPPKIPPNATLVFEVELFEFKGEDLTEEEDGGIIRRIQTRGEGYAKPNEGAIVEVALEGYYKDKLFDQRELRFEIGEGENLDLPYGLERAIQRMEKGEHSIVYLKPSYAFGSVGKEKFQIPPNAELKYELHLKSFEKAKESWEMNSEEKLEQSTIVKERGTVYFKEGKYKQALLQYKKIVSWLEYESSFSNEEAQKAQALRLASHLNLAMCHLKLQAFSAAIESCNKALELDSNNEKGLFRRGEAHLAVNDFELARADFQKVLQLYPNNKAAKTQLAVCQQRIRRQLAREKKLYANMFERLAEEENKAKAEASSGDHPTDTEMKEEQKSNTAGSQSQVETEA
In words: PPIase (rotamase) assay, FKBP-52. It counts as biochemical. Conditions: read-out: IC50 for inhibition of the FKBP-52 enzyme. The protocol: Assay buffer (2.175 ml) (50 mM HEPES, 100 mM NaCl, 1 mM DTT, pH 8.0) is equilibrated to 10° C. in a cuvette. 12.5 μl of a solution of the present compound in DMSO, 250 μl of a 60 mg/ml solution of α-chymotrypsin in 1 mM aqueous hydrochloric acid and then 50 μL of a solution of human recombinant FKBP-12 (1.5 μM) in assay buffer are added and mixed. The reaction is initiated by adding 1 2.5 μl of a solution of anhydrous succinyl-ALPF-pNA (100 μM final concentration) in a 400 mM solution of LiCl in trifluoroethanol. The absorbance at 390 nm is monitored for 3 minutes collecting data every 0.5 second. Data are fitted with a first order rate equation with offset and the initial velocity (v) is calculated from the concentration of cis (re leu-pro bond)-succinyl-ALPF-pNA at to and the first order rate constant at different inhibitor concentrations (I). Data in the form vinh/vcontrol v. [I] are fitted with an equation for reversible tight binding inhibition to generate values for Ki,app (see Morrison, J. F., et al, Comments Mol. Cell Biophys., 1985, 2, 347-368). This analysis is used when the Ki,app approaches the concentration of FKBP-12 in the assay (30 nM). […] The same methodology is used to generate Ki,app for FKBP52 with the following modifications: Forty microlitres human recombinant FKBP52 (5.2 μM) is substituted for FKBP12 and 2.185 ml assay buffer are used in the assay. […]
Take `O=C(N[C@H]1CCN(Cc2ccccc2)C1)[C@@H]1CCCCN1c1nc2ccccc2o1` [Example 2, (2S)-1-(1,3-Benzoxazol-2-yl)-N^2-[(3S)-1-benzylpyrrolidin-3-yl]-2-piperidinecarboxamide]: the half-inhibitory concentration (IC50) is 2790 nM.

These data come from patent publication US6372736B1, “Heterocyclic compounds as inhibitors of rotamase enzymes” (Pfizer INC, priority 1999, dated 2002).
